Test results taken from the supplement of paper PMC11451515.

Test system: P12-Ichikawa
Test: cell viability relative to DMSO control; higher = less cytotoxic
Details: 48 h
Method in brief: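 NOMO1, SEM and P12-Ichikawa leukemia cells spent at least four passages adapting to each medium before use. They were seeded at 500 cells/well (NOMO1, SEM) or 1000 cells/well (P12-Ichikawa) in 5 μl in 1536-well plates and pin-dosed with library compounds in DMSO at 11 threefold steps from 47 μM down to 0.79 nM. After 48 h at 37°C, CellTiter-Glo One luminescence was read. Viability is reported as a percentage of the DMSO wells on each plate, with cell-free wells as background.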

[1] = HPLM + 10% dialyzed FBS, 0.000781 µM
[2] = HPLM + 10% dialyzed FBS, 0.00234 µM
[3] = HPLM + 10% dialyzed FBS, 0.00702 µM
[4] = HPLM + 10% dialyzed FBS, 0.0211 µM
[5] = HPLM + 10% dialyzed FBS, 0.0632 µM
[6] = HPLM + 10% dialyzed FBS, 0.19 µM
[7] = HPLM + 10% dialyzed FBS, 0.569 µM
[8] = HPLM + 10% dialyzed FBS, 1.71 µM
[9] = HPLM + 10% dialyzed FBS, 5.12 µM
[10] = HPLM + 10% dialyzed FBS, 15.4 µM
[11] = HPLM + 10% dialyzed FBS, 46.1 µM
[12] = RPMI 5 mM glucose + 10% FBS, 0.000781 µM
[13] = RPMI 5 mM glucose + 10% FBS, 0.00234 µM
[14] = RPMI 5 mM glucose + 10% FBS, 0.00702 µM
[15] = RPMI 5 mM glucose + 10% FBS, 0.0211 µM
[16] = RPMI 5 mM glucose + 10% FBS, 0.0632 µM
[17] = RPMI 5 mM glucose + 10% FBS, 0.19 µM
[18] = RPMI 5 mM glucose + 10% FBS, 0.569 µM
[19] = RPMI 5 mM glucose + 10% FBS, 1.71 µM
[20] = RPMI 5 mM glucose + 10% FBS, 5.12 µM
[21] = RPMI 5 mM glucose + 10% FBS, 15.4 µM
[22] = RPMI 5 mM glucose + 10% FBS, 46.1 µM
[23] = RPMI 5 mM glucose + 10% dialyzed FBS, 0.000781 µM
[24] = RPMI 5 mM glucose + 10% dialyzed FBS, 0.00234 µM
[25] = RPMI 5 mM glucose + 10% dialyzed FBS, 0.00702 µM
[26] = RPMI 5 mM glucose + 10% dialyzed FBS, 0.0211 µM
[27] = RPMI 5 mM glucose + 10% dialyzed FBS, 0.0632 µM
[28] = RPMI 5 mM glucose + 10% dialyzed FBS, 0.19 µM
[29] = RPMI 5 mM glucose + 10% dialyzed FBS, 0.569 µM
[30] = RPMI 5 mM glucose + 10% dialyzed FBS, 1.71 µM
[31] = RPMI 5 mM glucose + 10% dialyzed FBS, 5.12 µM
[32] = RPMI 5 mM glucose + 10% dialyzed FBS, 15.4 µM
[33] = RPMI 5 mM glucose + 10% dialyzed FBS, 46.1 µM

| Compound | cell viability [1] | cell viability [2] | cell viability [3] | cell viability [4] | cell viability [5] | cell viability [6] | cell viability [7] | cell viability [8] | cell viability [9] | cell viability [10] | cell viability [11] | cell viability [12] | cell viability [13] | cell viability [14] | cell viability [15] | cell viability [16] | cell viability [17] | cell viability [18] | cell viability [19] | cell viability [20] | cell viability [21] | cell viability [22] | cell viability [23] | cell viability [24] | cell viability [25] | cell viability [26] | cell viability [27] | cell viability [28] | cell viability [29] | cell viability [30] | cell viability [31] | cell viability [32] | cell viability [33] |
| --- | --- | --- | --- | --- | --- | --- | --- | --- | --- | --- | --- | --- | --- | --- | --- | --- | --- | --- | --- | --- | --- | --- | --- | --- | --- | --- | --- | --- | --- | --- | --- | --- | --- |
| N[S+](=O)([O-])c1cc2c(cc1Cl)NC(C(Cl)Cl)N[S+]2(=O)[O-] (stereo unspecified) | 102% | 109% | 105% | 112% | 113% | 118% | 117% | 120% | 114% | 123% | 118% | 114% | 120% | 111% | 120% | 126% | 129% | 127% | 130% | 139% | 123% | 128% | 109% | 117% | 104% | 118% | 118% | 122% | 114% | 124% | 121% | 122% | 115% |
| O=C(O)CCCCC(CCSCc1ccccc1)SCc1ccccc1 (stereo unspecified) | 108% | 115% | 114% | 109% | 120% | 116% | 122% | 113% | 118% | 62.1% | 9.29% | 112% | 117% | 138% | 119% | 128% | 132% | 130% | 135% | 121% | 119% | 58.4% | 106% | 116% | 116% | 111% | 122% | 124% | 121% | 122% | 116% | 101% | 52.9% |
| CC(C)=CCC/C(C)=C/CC/C(C)=C/CSc1ccccc1C(=O)O | 103% | 121% | 117% | 113% | 119% | 105% | 91.2% | 83.7% | 90.6% | 61% | 36.4% | 106% | 106% | 111% | 95.7% | 101% | 90% | 82.1% | 67.3% | 60% | 47.9% | 34.4% | 104% | 112% | 120% | 116% | 98.1% | 97.2% | 99.5% | 76.4% | 75.2% | 60% | 39.8% |
| CC1=C(/C=C/C(C)=C/C=C/C(C)=C\C(=O)O)C(C)(C)CCC1 | 88.5% | 91.7% | 90.2% | 93.4% | 95.7% | 92.6% | 96.4% | 92.2% | 97.3% | 95.5% | 91.3% | 76.1% | 88.5% | 82.7% | 91% | 85.5% | 89.7% | 85.4% | 79.6% | 77.4% | 84.5% | 82.1% | 80.4% | 89.9% | 85% | 90% | 86.7% | 86.7% | 91.9% | 90.5% | 83.7% | 84.5% | 85.4% |
| O=C(Nc1c[nH]nc1-c1nc2cc(CN3CCOCC3)ccc2[nH]1)NC1CC1 | 93.4% | 101% | 101% | 97.6% | 53.8% | 12.7% | 23.9% | 38.5% | 51.6% | 36.5% | 19.3% | 97% | 103% | 101% | 99.8% | 59% | 16% | 38% | 47.3% | 45.1% | 38.6% | 14.1% | 99% | 98.6% | 91.5% | 102% | 65.2% | 24.8% | 45.8% | 58.5% | 60.2% | 46.5% | 14.2% |
| CCCC(C)(COC(N)=O)COC(=O)NC(C)C (stereo unspecified) | 115% | 117% | 114% | 130% | 127% | 123% | 121% | 119% | 129% | 135% | 119% |  |  |  |  |  |  |  |  |  |  |  |  |  |  |  |  |  |  |  |  |  |  |
| CN(C)C1=CC(=CC=C1)C\2=C\3C(=O)N(NC3=C/C(=O)N2C)C4=CC=CC=C4Cl | 114% | 112% | 106% | 111% | 113% | 95.8% | 90.3% | 10.8% | 4.69% | 4.7% | 7.14% | 113% | 122% | 116% | 110% | 117% | 110% | 103% | 25.7% | 9.73% | 8.05% | 15.8% | 122% | 114% | 114% | 112% | 120% | 109% | 102% | 41.3% | 21.1% | 16.6% | 23.9% |
| Cc1ccccc1C(OCCN(C)C)c1ccccc1 (stereo unspecified) | 106% | 118% | 117% | 110% | 113% | 118% | 107% | 129% | 127% | 123% | 123% |  |  |  |  |  |  |  |  |  |  |  | 114% | 126% | 118% | 123% | 121% | 113% | 124% | 131% | 124% | 128% | 116% |
